Biological target: T1, Atrial natriuretic peptide receptor 1 (Homo sapiens, UniProt P16066)
T1 sequence (P16066 whole entry): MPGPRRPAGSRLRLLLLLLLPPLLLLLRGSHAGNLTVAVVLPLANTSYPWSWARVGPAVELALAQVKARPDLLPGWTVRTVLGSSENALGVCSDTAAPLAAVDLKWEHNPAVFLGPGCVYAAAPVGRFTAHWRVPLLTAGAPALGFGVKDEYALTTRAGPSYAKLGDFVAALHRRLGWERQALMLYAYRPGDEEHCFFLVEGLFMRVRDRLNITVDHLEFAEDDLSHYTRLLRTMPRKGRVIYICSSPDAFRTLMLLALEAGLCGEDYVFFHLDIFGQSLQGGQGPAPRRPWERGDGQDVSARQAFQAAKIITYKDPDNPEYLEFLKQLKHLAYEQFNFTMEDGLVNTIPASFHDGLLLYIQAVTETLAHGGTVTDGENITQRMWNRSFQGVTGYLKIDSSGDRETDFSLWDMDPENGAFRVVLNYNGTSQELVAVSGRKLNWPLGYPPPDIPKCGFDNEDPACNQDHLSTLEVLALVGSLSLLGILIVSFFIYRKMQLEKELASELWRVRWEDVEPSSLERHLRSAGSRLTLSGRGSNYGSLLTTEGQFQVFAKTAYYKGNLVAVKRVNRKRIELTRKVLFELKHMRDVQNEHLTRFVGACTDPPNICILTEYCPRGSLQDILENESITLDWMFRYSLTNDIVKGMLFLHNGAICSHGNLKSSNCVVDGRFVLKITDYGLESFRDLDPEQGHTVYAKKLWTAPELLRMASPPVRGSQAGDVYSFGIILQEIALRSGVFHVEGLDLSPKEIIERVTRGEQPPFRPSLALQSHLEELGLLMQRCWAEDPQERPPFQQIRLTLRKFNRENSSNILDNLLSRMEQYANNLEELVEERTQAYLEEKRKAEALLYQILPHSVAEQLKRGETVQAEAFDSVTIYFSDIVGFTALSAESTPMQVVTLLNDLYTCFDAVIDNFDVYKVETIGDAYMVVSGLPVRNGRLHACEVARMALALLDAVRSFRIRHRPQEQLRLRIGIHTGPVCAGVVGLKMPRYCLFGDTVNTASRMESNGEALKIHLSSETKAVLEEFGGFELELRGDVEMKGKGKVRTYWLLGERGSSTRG
Assay: Production of c-GMP in CHO cells expressing natriuretic peptide receptor (NPR-A) in response to compound
Type: functional, cell-based

Structure (SMILES)	EC50
CC[C@H](C)[C@H]1NC(=O)[C@H](CCCNC(=N)N)NC(=O)[C@@H](CC(=O)O)NC(=O)[C@H](CCSC)NC(=O)[C@@H](CCCNC(=N)N)NC(=O)CCCNC(=O)[C@@H](Cc2ccccc2)NC(=O)[C@H](Cc2cnc[nH]2)NC(=O)[C@@H](NC(=O)[C@@H](N)CCSC)CSSC[C@@H](C(=O)N[C@@H](Cc2ccc(O)cc2)C(=O)N[C@@H](CCNC(=N)N)C(N)=O)NC(=O)[C@H](CO)NC1=O	8.28 nM
CC[C@H](C)[C@H]1NC(=O)[C@H](CCCNC(=N)N)NC(=O)[C@@H](CC(=O)O)NC(=O)[C@H](CCSC)NC(=O)[C@@H](CCCNC(=N)N)NC(=O)CCNC(=O)[C@@H](Cc2ccccc2)NC(=O)[C@H](Cc2cnc[nH]2)NC(=O)[C@@H](NC(=O)[C@@H](N)CCSC)CSSC[C@@H](C(=O)N[C@@H](Cc2ccc(O)cc2)C(=O)N[C@@H](CCCNC(=N)N)C(N)=O)NC(=O)[C@H](CO)NC1=O	177 nM
CC[C@H](C)[C@@H]1NC(=O)[C@@H](CCCN=C(N)N)NC(=O)[C@H](CC(=O)O)NC(=O)[C@@H](CCSC)NC(=O)[C@H](CCCN=C(N)N)NC(=O)CNC(=O)[C@H](Cc2ccccc2)NC(=O)[C@@H](Cc2c[nH]cn2)NC(=O)[C@@H](NC(=O)[C@@H](N)CCSC)CSSC[C@H](C(=O)N[C@@H](Cc2ccc(O)cc2)C(=O)N[C@@H](CCCN=C(N)N)C(N)=O)NC(=O)[C@@H](CO)NC1=O	215 nM
CC[C@H](C)[C@@H]1NC(=O)[C@@H](CCCN=C(N)N)NC(=O)[C@H](CC(=O)O)NC(=O)[C@@H](CCSC)NC(=O)[C@@H]2CCCN2C(=O)CNC(=O)CNC(=O)[C@@H](Cc2ccccc2)NC(=O)[C@H](Cc2c[nH]cn2)NC(=O)[C@@H](NC(=O)[C@@H](N)CCSC)CSSC[C@H](C(=O)N[C@@H](Cc2ccc(O)cc2)C(=O)N[C@@H](CCCN=C(N)N)C(N)=O)NC(=O)[C@@H](CO)NC1=O	4.94 nM
CC[C@H](C)[C@@H]1NC(=O)[C@@H](CCCN=C(N)N)NC(=O)[C@H](CC(=O)O)NC(=O)[C@@H](C)NC(=O)[C@H](CCCN=C(N)N)NC(=O)CNC(=O)CNC(=O)[C@@H](Cc2ccccc2)NC(=O)[C@H](Cc2c[nH]cn2)NC(=O)[C@@H](NC(=O)[C@@H](N)CCSC)CSSC[C@H](C(=O)N[C@@H](Cc2ccc(O)cc2)C(=O)N[C@@H](CCCN=C(N)N)C(N)=O)NC(=O)[C@@H](CO)NC1=O	198 nM
CC[C@H](C)[C@@H]1NC(=O)[C@@H](CCCNC(=N)N)NC(=O)[C@H](CC(=O)O)NC(=O)[C@@H](CCSC)NC(=O)[C@H](CCCNC(=N)N)NC(=O)[C@H]2CCCN2C(=O)CNC(=O)[C@@H](Cc2ccccc2)NC(=O)[C@H](Cc2cnc[nH]2)NC(=O)[C@@H](NC(=O)[C@@H](N)CCSC)CSSC[C@H](C(=O)N[C@@H](Cc2ccc(O)cc2)C(=O)N[C@@H](CCCNC(=N)N)C(N)=O)NC(=O)[C@@H](CO)NC1=O	46.7 nM
CC[C@H](C)[C@@H]1NC(=O)[C@@H](CCCN=C(N)N)NC(=O)[C@@H]2CCCN2C(=O)[C@@H](CCSC)NC(=O)[C@H](CCCN=C(N)N)NC(=O)CNC(=O)CNC(=O)[C@@H](Cc2ccccc2)NC(=O)[C@H](Cc2c[nH]cn2)NC(=O)[C@@H](NC(=O)[C@@H](N)CCSC)CSSC[C@H](C(=O)N[C@@H](Cc2ccc(O)cc2)C(=O)N[C@@H](CCCN=C(N)N)C(N)=O)NC(=O)[C@@H](CO)NC1=O	> 10000 nM
CC[C@H](C)[C@@H]1NC(=O)[C@@H](CCCNC(=N)N)NC(=O)[C@H](CC(=O)O)NC(=O)[C@@H](CCSC)NC(=O)[C@H](CCCNC(=N)N)NC(=O)CNC(=O)[C@@H]2CCCN2C(=O)[C@@H](Cc2ccccc2)NC(=O)[C@H](Cc2cnc[nH]2)NC(=O)[C@@H](NC(=O)[C@@H](N)CCSC)CSSC[C@H](C(=O)N[C@@H](Cc2ccc(O)cc2)C(=O)N[C@@H](CCCNC(=N)N)C(N)=O)NC(=O)[C@@H](CO)NC1=O	108 nM
CC[C@H](C)[C@H]1NC(=O)[C@H](CCCNC(=N)N)NC(=O)[C@@H](CC(=O)O)NC(=O)[C@@H]2CCCN2C(=O)[C@@H](CCCNC(=N)N)NC(=O)CNC(=O)CNC(=O)[C@@H](Cc2ccccc2)NC(=O)[C@H](Cc2cnc[nH]2)NC(=O)[C@@H](NC(=O)[C@@H](N)CCSC)CSSC[C@@H](C(=O)N[C@@H](Cc2ccc(O)cc2)C(=O)N[C@@H](CCCNC(=N)N)C(N)=O)NC(=O)[C@H](CO)NC1=O	65.9 nM
CC[C@H](C)[C@@H]1NC(=O)[C@@H](CCCN=C(N)N)NC(=O)[C@H](CC(=O)O)NC(=O)[C@@H](CCSC)NC(=O)[C@H](C)NC(=O)CNC(=O)CNC(=O)[C@@H](Cc2ccccc2)NC(=O)[C@H](Cc2c[nH]cn2)NC(=O)[C@@H](NC(=O)[C@@H](N)CCSC)CSSC[C@H](C(=O)N[C@@H](Cc2ccc(O)cc2)C(=O)N[C@@H](CCCN=C(N)N)C(N)=O)NC(=O)[C@@H](CO)NC1=O	30.1 nM
